According to patent US7728039B2, “Biphenyl and Naphthyl-Phenyl Hydroxamic Acid Derivatives” (Sigma-Tau Industrie Farmaceutiche Riunite S.p.A., priority 2005, dated 2010):
Read-outs that look alike come from different tables or passages of the source.

Key:
[1] = system: NCI-H460 non-small cell carcinoma cells; experiment: Sulphorodamine B cytotoxicity test on NCI-H460 cells; assay type: cell-based; conditions: SRB, read-out: IC50 ± SD, NCI-H460
Procedure: The chemical structures of the tested compounds of the invention and of the corresponding compounds bearing a carboxylic acid group are reported in FIG. 1. […] NB4 and NCI-H460 tumour cells were grown in RPMI 1640 containing 10% foetal bovine serum (GIBCO), HCT-116 tumour cells were grown in McCoy's 5A containing 10% foetal bovine serum (GIBCO), IGROV-1 and IGROV-1/Pt were grown in DMEM containing 10% foetal bovine serum (GIBCO),
(§1) Tumour cells were seeded in 96-well tissue culture plates at approximately 10% confluence and were allowed to attach and recover for at least 24 h. Varying concentrations of the drugs were then added to each well to calculate their IC50 value (the concentration which inhibits the 50% of cell survival). The plates were incubated for 24 h at 37° C. At the end of the treatment, for NB4 tumour cells in suspension, the procedure was performed as follows: medium culture was removed by centrifugation of the plates at 1600×g for 10 min and the surnatant was removed. 250 μl PBS were added, then the plates were centrifuged at 1600×g for 10 min, the surnatant was removed. 200 μl/well of medium culture RPMI 1640 containing 10% FCS were added and the plates were incubated at 37° C. for other 48 h. The plates were centrifuged again at 1600×g for 10 min, the medium culture was removed and 200 μl PBS and 50 μl of cold 80% TCA were added. The plates were incubated on ice for at least 1 h. TCA was removed, the plates were washed 3 times for immersion in distilled-water and dried on paper and at 40° C. for 5 min. Then 200 μl of 0.4% sulphorodamine B in 1% acetic acid were added. The plates were incubated at room temperature for other 30 min. Sulphorodamine B was removed, the plates were washed for immersion in 1% acetic acid for 3 times, then they were dried on paper and at 40° C. for 5 min. Then 200 μl Tris 10 mM were added, the plates were kept under stirring for 20 min. The survival cell was determined as optical density by a Multiskan spectrofluorimeter at 540 nm. For the tumour cells in adhesion (NCI-H460 and HCT-116), the procedure was as above mentioned, except that at the end of the treatment, the plates were washed by remotion of the surnatant and addition of PBS 3 times without centrifugation. Also the last day of the assay, the surnatant was removed without centrifugation.
(§2) The amount of cells killed was calculated as the percentage decrease in sulphorodamine B binding compared with control cultures. The IC50 values (the concentration which inhibits the 50% of cell survival) were calculated with the “ALLFIT” program.

[2] = system: NB4 human promyelocytic leukaemia; experiment: Sulphorodamine B cytotoxicity test on NB4 cells; assay type: cell-based
Text: (§3) The cytotoxic effect of some biphenyl and phenylnaphthyl compounds bearing a hydroxamic acid group is reported herein. […] The chemical structures of the tested compounds of the invention and of the corresponding compounds bearing a carboxylic acid group are reported in FIG. 1. To test the effects of the compounds on cell growth, NB4 human promyelocytic leukaemia, NCI-H460 non-small cell carcinoma cells, H460/(R9A) (resistant to carboxylic acid-bearing compounds: ST1898, ST1926, ST1964), HCT-116 human colon carcinoma cells, IGROV-1 and IGROV-1/Pt (sensitive ovarian carcinoma and platinum-resistant ovarian carcinoma cells, respectively) were used. NB4 and NCI-H460 tumour cells were grown in RPMI 1640 containing 10% foetal bovine serum (GIBCO), HCT-116 tumour cells were grown in McCoy's 5A containing 10% foetal bovine serum (GIBCO), IGROV-1 and IGROV-1/Pt were grown in DMEM containing 10% foetal bovine serum (GIBCO),
as §1, §2

[3] = system: IGROV-1/Pt (platinum-resistant ovarian carcinoma cells); experiment: Sulphorodamine B cytotoxicity test on IGROV-1/Pt cells; assay type: cell-based; conditions: read-out: IC50 ± SD, IGROV-1/Pt
Text: as §3, §1, §2

[4] = system: IGROV-1 (sensitive ovarian carcinoma cells); experiment: Sulphorodamine B cytotoxicity test on IGROV-1 cells; assay type: cell-based; conditions: read-out: IC50 ± SD, IGROV-1
Text: as §3, §1, §2

[5] = system: NCI-H460 R9A tumour cells (H460/(R9A), resistant to carboxylic acid-bearing compounds); experiment: Sulphorodamine B cytotoxicity test on ST1926-resistant NCI-H460 R9A cells; assay type: cell-based; conditions: for RI (resistance index): IC50 on resistant tumour cell line/IC50 on sensitive tumour cell line (NCI-H460 R9A / NCI-H460); for IC50: Table 3, resistant NCI-H460 R9A, SRB, read-out: IC50 ± SD, NCI-H460 R9A; for overcoming of resistance on H460/R9A: H460/R9A versus sensitive NCI-H460, result in words
Text: as §3, §1, §2
The resistant tumour cell line NCI H460 R9A was a clone selected for the resistance to ST1926 (Table 3). To obtain the resistant tumour cell line, the sensitive NCI-H460 tumour cells were treated with 2 μM ST1926 for 24 hours and maintained in drug-free medium for a recovering time of 7 days. Then, survived cells were cultured applying a continuous selective pressure of 2 μM (10×IC50) ST1926. Resistant NCI-H460 cells were subculture for 3-4 times before increasing ST1926 concentration to 4 μM (20×IC50). Survived cells were seeded in 96-well plates to isolate resistant cells clones and maintained in complete medium with 4 μM of ST1926. The tumour cell line was maintained at least for one week, before seeding for SRB cytotoxicity assay, in drug-free medium.
To evaluate the effect of the compound on survival cells, the sulphorodamine B test was used. […]

[6] = system: NB4 promyelocytic leukaemia cells; experiment: Differentiation of NB4 tumour cells by nitroblue tetrazolium (NBT) reduction, with or without ATRA; assay type: cell-based, human; conditions: 3 days, NBT-reducing activity; for Differentiation AC50: compound alone (without ATRA)
Text: Relevant aspects of the differentiation program set in motion by ATRA in APL cells can be reproduced in primary cultures of leukemic blasts and in the derived NB4 cell line, which is a unique model for the study of the pharmacologic activity of ATRA and derivatives. Pharmacological concentrations of ATRA arrest the growth of NB4 blasts and differentiate them into cells that resemble mature neutrophils. This is followed by a slow process of apoptosis. […] In particular, the differentiation of NB4 tumour cells induced by the compounds was determined by nitroblue tetrazolium (NBT) reduction. NB4 promyelocytic leukaemia cells were seeded at a density of 150000 cells/ml in RPMI 1640 medium containing 10% FCS. To measure the cytodifferentiating effect of the molecules, tumour cells were treated with the compounds at different concentrations starting from at least 0.4 μM to 0.01 μM, whereas to measure the enhancing action of the molecules of ATRA activity, NB4 cells were treated with increasing concentrations of the molecules in the presence or absence of ATRA at a suboptimal concentration (5 nM).
Tumour cells were incubated for 3 days at 37° C. without replacing the medium culture. To measure the prodifferentiative effect, 500,000 cells were collected, centrifuged and resuspended in 1 ml of RPMI 1640 medium containing 10% FCS, 1 mg/ml of nitroblue tetrazolium (NBT) and 100 ng of PMA (4-phorbol-12-myristate-13-acetate). The tumour cells resuspended were incubated at 37° C. for 60 min. At the end of the incubation, tumour cells were centrifuged and the pellet was resuspended in 1 ml of PBS containing Triton ×100 at 10%. The samples were sonicated and the absorbance was determined at 540 nm with a spectrophotometer. Differentiation of tumor cells as AC50 (activating concentration) was evaluated as the concentration of the compound giving 50% of the maximal induction of NBT-reducing activity with or without ATRA.

[7] = system: HCT-116 human colon carcinoma cells; experiment: Sulphorodamine B cytotoxicity test on HCT-116 cells; assay type: cell-based; conditions: Table 2, SRB, read-out: IC50 ± SD, HCT-116
Text: as §3, §1, §2

[8] = Table 4, NB4 tumour cells, compound alone, read-out: IC50 (μM ± SD)
[9] = Homo sapiens, NCI-H460, Table 3, sensitive NCI-H460
[10] = Homo sapiens, NB-4, Table 4, NB4 tumour cells, compound alone, read-out: IC50 (μM ± SD)
[11] = Homo sapiens, NB-4, Table 1, NB4, 24 h treatment, 48 h recovery, SRB, read-out: IC50 ± SD, NB4
[12] = Homo sapiens, NCI-H460, Table 2, NCI-H460

Molecule: COc1ccc(-c2ccc(/C=C/C(=O)O)cc2)cc1C12CC3CC(CC(C3)C1)C2 [ST1898, reference compound]
- IC50 ([1]; Table 3, sensitive NCI-H460): 1.2 ± 0.02 µM
- IC50 ([2]; Table 1, NB4, 24 h treatment, 48 h recovery, SRB, read-out: IC50 ± SD, NB4): 1.1 ± 0.07 µM
- IC50 ([3]; Table 1, SRB): 1.43 ± 0.05 µM
- IC50 ([4]; Table 1, SRB): 1.19 ± 0.05 µM
- RI (resistance index) [5]: 53.6
- IC50 [5]: 64.4 ± 5 µM

Molecule: O=C(O)/C=C/c1ccc(-c2ccc(O)c(C34CC5CC(CC(C5)C3)C4)c2)cc1 [ST1926, E-3-(4′-hydroxy-3′-adamantylbiphenyl-4-yl)acrylic acid, reference compound]
- IC50 ([1]; Table 3, sensitive NCI-H460): 0.13 ± 0.01 µM
- IC50 [2, 8]: 0.082 ± 0.005 µM
- Differentiation AC50 [6]: no differentiation
- RI (resistance index) [5]: 77.7
- IC50 [5]: 10.1 ± 0.7 µM

Molecule: O=C(O)c1ccc2cc(-c3ccc(O)c(C45CC6CC(CC(C6)C4)C5)c3)ccc2c1 [ST1964, 6-[3′-(1-adamantyl)-4′-hydroxyphenyl]-2-naphthalenecarboxylic acid, reference compound]
- IC50 [1, 9]: 0.37 ± 0.02 µM
- IC50 [2, 10]: 0.4 ± 0.05 µM
- Differentiation AC50 [6]: no differentiation
- IC50 ([5]; Homo sapiens): 12.7 ± 0.7 µM
- RI (resistance index) [5]: 34

Molecule: O=C(NO)c1ccc2cc(-c3ccc(O)c(C45CC6CC(CC(C6)C4)C5)c3)ccc2c1 [ST2142, 6-[3-1-(adamantyl)-4-hydroxyphenyl]-naphthalene-2-carboxylic acid N-hydroxyamide]
- IC50 ([1]; Table 2, NCI-H460): 1 ± 0.06 µM
- IC50 ([1]; Table 3, sensitive NCI-H460): 1 ± 0.06 µM
- IC50 [2, 8]: 2.4 ± 0.08 µM
- IC50 ([3]; Table 2, SRB): 1.1 ± 0.03 µM
- AC50 ([6]; combined with suboptimal ATRA (5 nM)): 0.31 µM
- Differentiation AC50 [6]: no differentiation
- IC50 ([4]; Table 2, SRB): 0.65 ± 0.1 µM
- overcoming of resistance on H460/R9A [5]: completely overcame the resistance
- RI (resistance index) [5]: 2.2
- IC50 [5]: 2.2 ± 0.1 µM
- IC50 [7]: 2.9 ± 0.2 µM

Molecule: O=C(O)/C=C/c1ccc(-c2ccc(O)cc2)cc1 [ST2188, E-4-(4-hydroxyphenyl)cinnamic acid, reference compound]
- IC50 [2, 11]: 78.7 ± 7.4 µM
- IC50 ([3]; Homo sapiens, Table 1, SRB): 156 ± 2 µM
- IC50 ([4]; Homo sapiens, Table 1, SRB): 89 ± 11 µM

Molecule: COc1ccc(-c2ccc(/C=C/C(=O)NO)cc2)cc1C12CC3CC(CC(C3)C1)C2 [ST3056, E-3-(3′-Adamantan-1-yl-4′-methoxy-biphenyl-4-yl)-N-hydroxy-acrylamide]
- IC50 [1, 12]: 0.62 ± 0.04 µM
- IC50 [1, 9]: 0.62 ± 0.04 µM
- IC50 [2, 11]: 0.6 ± 0.05 µM
- IC50 ([3]; Homo sapiens, Table 1, SRB): 1.79 ± 0.07 µM
- IC50 ([4]; Homo sapiens, Table 1, SRB): 0.96 ± 0.03 µM
- overcoming of resistance on H460/R9A [5]: completely overcame the resistance
- IC50 ([5]; Homo sapiens): 1.2 ± 0.04 µM
- RI (resistance index) [5]: 1.9
- IC50 ([7]; Homo sapiens): 1.3 ± 0.1 µM

Molecule: O=C(C=Cc1ccc(-c2cc3c(c(C45CC6CC(CC(C6)C4)C5)c2)OCCO3)cc1)NO [ST3081, 3-[4-(8-Adamantan-1-yl-2,3-dihydro-benzo[1,4]dioxin-6-yl)-phenyl]-N-hydroxy-acrylamide]
- IC50 [1, 12]: 1 ± 0.04 µM
- IC50 [1, 9]: 1.48 ± 0.19 µM
- IC50 ([3]; Homo sapiens, Table 2, SRB): 0.84 ± 0.02 µM
- IC50 ([4]; Homo sapiens, Table 2, SRB): 1.22 ± 0.04 µM
- overcoming of resistance on H460/R9A [5]: the same characteristic are retained
- IC50 ([5]; Homo sapiens): 1.39 ± 0.14 µM
- RI (resistance index) [5]: 0.94
- IC50 ([7]; Homo sapiens): 2.55 ± 0.03 µM

Molecule: O=C(/C=C/c1ccc(-c2ccc(O)c(C34CC5CC(CC(C5)C3)C4)c2)c(Cl)c1)NO [ST3088, E-3-(3′-Adamantan-1-yl-2-chloro-4′-hydroxy-biphenyl-4-yl)-N-hydroxy-acrylamide]
- IC50 [1, 12]: 5.4 ± 0.3 µM
- IC50 [1, 9]: 5.4 ± 0.3 µM
- IC50 ([3]; Homo sapiens, Table 2, SRB): 1.61 ± 0.1 µM
- IC50 ([4]; Homo sapiens, Table 2, SRB): 1.34 ± 0.04 µM
- overcoming of resistance on H460/R9A [5]: the same characteristic are retained
- IC50 ([5]; Homo sapiens): 7.5 ± 0.1 µM
- RI (resistance index) [5]: 1.4
- IC50 ([7]; Homo sapiens): 5.4 ± 0.9 µM

Molecule: O=C(/C=C/c1ccc(-c2ccccc2)cc1)NO [ST3256, E-3-(biphenyl-4-yl)-N-hydroxy-acrylamide, reference compound]
- IC50 [2, 10]: 0.9 ± 0.1 µM
- Differentiation AC50 [6]: no differentiation

Molecule: CN(C)c1ccc(-c2ccc(/C=C/C(=O)NO)cc2)cc1 [ST3444, E-3-[4′-dimethylaminobiphenyl-4-yl]-N-hydroxy-acrylamide, reference compound]
- IC50 [2, 10]: 0.86 ± 0.05 µM
- Differentiation AC50 [6]: no differentiation

Molecule: E,E-5-biphenylyl-pentadienoic acid N-hydroxyamide [ST3400, reference compound]
- IC50 [2, 8]: 0.66 ± 0.003 µM
- Differentiation AC50 [6]: no differentiation
